Results published in patent US10201533B2, “Substituted quinolizine derivatives useful as HIV integrase inhibitors” (priority 2013, dated 2019).
Where two headings read alike, the source gives them in different places.

System: HIV-1 (NL4-3 strain)
Test: microbe, parasite or virus in culture
Type: cell-based
Conditions: MT4-GFP cells infected with HIV-1 NL4-3, IP or IC50 from 4-parameter dose response curve
[1] = 0% normal human serum (NHS), read-out: WILD TYPE CELL ASSAY Viking IP (0% NHS)
[2] = 100% normal human serum (NHS), read-out: WILD TYPE CELL ASSAY Viking IP (100% NHS)
[3] = Human immunodeficiency virus 1, NL43, 0% normal human serum (NHS), read-out: WILD TYPE CELL ASSAY Viking IP (0% NHS)
[4] = Human immunodeficiency virus 1, NL43, 100% normal human serum (NHS), read-out: WILD TYPE CELL ASSAY Viking IP (100% NHS)

SMILES	IC50 [1] [nM]	IC50 [2] [nM]	IC50 [3] [nM]	IC50 [4] [nM]
C[C@@]12CCCCO[C@@H]1Cn1cc(C(=O)NCc3c(F)cc(F)cc3F)c(=O)c(O)c1C2=O (single isomer, unassigned) [Compound 42]	2.1	517	–	–
C[C@]12CCCCO[C@@H]1Cn1cc(C(=O)NCc3ccc(F)cc3F)c(=O)c(O)c1C2=O (single isomer, unassigned) [Compound 43]	–	2000	3.2	–
COCCC[C@]1(C)C(=O)c2c(O)c(=O)c(C(=O)NCc3ccc(F)cc3F)cn2C[C@@H]1OC [Compound 74]	4	262	–	–
COCCC[C@@]1(C)C(=O)c2c(O)c(=O)c(C(=O)NCc3c(F)cccc3F)cn2C[C@@H]1OC [Compound 84]	–	–	1.8	31
COCC[C@]1(C)C(=O)c2c(O)c(=O)c(C(=O)NCc3c(F)cccc3F)cn2C[C@@H]1OC [Compound 72]	2.2	467	–	–
C[C@@]12CCCC[C@]1(O)Cn1cc(C(=O)NCc3ccc(F)cc3F)c(=O)c(O)c1C2=O [Compound 94]	–	–	1.8	282
COc1ncc(CNC(=O)c2cn3c(c(O)c2=O)C(=O)[C@@]2(C)CCCO[C@H]2C3)cc1Cl (single isomer, unassigned) [Compound 32]	–	–	8.2	> 8400
COC1Cn2cc(C(=O)NCc3ccc(F)cc3F)c(=O)c(O)c2C(=O)C1(C)C (stereo not shown) [Compound 5]	–	–	2.6	102
C[C@]12CCCCO[C@@H]1Cn1cc(C(=O)NCc3ccc(F)cc3F)c(=O)c(O)c1C2=O (single isomer, unassigned) [Compound 44]	1.9	316	–	–
COCC[C@@]1(C)C(=O)c2c(O)c(=O)c(C(=O)NCc3ccccc3F)cn2C[C@@H]1OC [Compound 66]	–	–	2.5	126
C[C@@]12CCCO[C@@H]1Cn1cc(C(=O)NCc3ccc(F)c(Cl)c3)c(=O)c(O)c1C2=O (single isomer, unassigned) [Compound 16]	–	–	4.1	257
C[C@]12COCO[C@H]1Cn1cc(C(=O)NCc3ccc(F)cc3F)c(=O)c(O)c1C2=O [Compound 13]	–	–	3.8	124
C[C@]12CCCO[C@@H]1Cn1cc(C(=O)NCc3ccc(F)cc3F)c(=O)c(O)c1C2=O (racemic) [Compound 9]	–	–	2.6	235
C[C@]12CCCO[C@H]1Cn1cc(C(=O)NCc3ccc(F)c(Cl)c3)c(=O)c(O)c1C2=O (single isomer, unassigned) [Compound 30]	–	–	2.8	> 8400
C[C@@]12COCO[C@H]1Cn1cc(C(=O)NCc3ccc(F)cc3F)c(=O)c(O)c1C2=O [Compound 12]	2.6	595	–	–
C[C@]12CCCO[C@H]1Cn1cc(C(=O)NCc3ccccc3F)c(=O)c(O)c1C2=O (single isomer, unassigned) [Compound 21]	–	–	2.4	385
CC1(C)C(=O)c2c(O)c(=O)c(C(=O)NCc3ccc(F)cc3F)cn2CC1O (stereo not shown) [Compound 4]	–	–	74	1850
CN1CCC[C@]2(C)C(=O)c3c(O)c(=O)c(C(=O)NCc4ccc(F)cc4F)cn3C[C@H]12 [Compound 124]	–	–	3.2	53
CC1(C)CCC[C@]2(C)C(=O)c3c(O)c(=O)c(C(=O)NCc4ccc(F)cc4F)cn3C[C@]12O [Compound 108]	–	–	2	105
CO[C@]12CCCC[C@@]1(C)C(=O)c1c(O)c(=O)c(C(=O)NCc3ccc(F)cc3F)cn1C2 [Compound 113]	–	–	1.3	> 8000
C[C@]12CCCO[C@H]1Cn1cc(C(=O)NCc3ccc(F)cc3)c(=O)c(O)c1C2=O (single isomer, unassigned) [Compound 19]	–	–	4.6	709
CC1(O)CCn2cc(C(=O)NCc3ccc(F)cc3F)c(=O)c(O)c2C1=O (racemic) [Compound 53]	–	–	64	> 8400
CC[C@]12CCCO[C@@H]1Cn1cc(C(=O)NCc3ccc(F)cc3F)c(=O)c(O)c1C2=O [Compound 120]	–	–	0.8	116
C[C@]12CCCO[C@@H]1Cn1cc(C(=O)NCc3cccc(Cl)c3F)c(=O)c(O)c1C2=O (single isomer, unassigned) [Compound 36]	0.6	1400	–	–
C[C@@]12CCCC[C@]1(O)Cn1cc(C(=O)NCc3ccc(F)c(Cl)c3)c(=O)c(O)c1C2=O [Compound 96]	–	–	6.2	> 8400
COCCC[C@]1(C)C(=O)c2c(O)c(=O)c(C(=O)NCc3ccc(F)cc3F)cn2C[C@@H]1OC [Compound 75]	0.5	13	–	–
CC1(C)CCn2cc(C(=O)NCc3ccc(F)cc3)c(=O)c(O)c2C1=O [Compound 2]	–	–	27	–

SMILES	IC50 [1] [nM]	IC50 [2] [nM]	IC50 [3] [nM]	IC50 [4] [nM]
Cc1cc(CNC(=O)c2cn3c(c(O)c2=O)C(=O)[C@@]2(C)CCCO[C@H]2C3)ccc1F (single isomer, unassigned) [Compound 24]	–	–	4.3	> 8400
COCC[C@]1(C)C(=O)c2c(O)c(=O)c(C(=O)NCc3cccc(Cl)c3F)cn2C[C@@H]1OC [Compound 65]	0.8	34	–	–
CC1(C)CCC[C@@]2(C)C(=O)c3c(O)c(=O)c(C(=O)NCc4ccc(F)cc4F)cn3C[C@@]12O [Compound 109]	–	–	3.2	714
C[C@]12CCCO[C@@H]1Cn1cc(C(=O)NCc3cccc(Cl)c3F)c(=O)c(O)c1C2=O (single isomer, unassigned) [Compound 35]	–	337	0.4	–
COC[C@]1(C)C(=O)c2c(O)c(=O)c(C(=O)NCc3ccc(F)cc3F)cn2C[C@@H]1OC [Compound 54]	1.8	55	–	–
COCCC[C@]1(C)C(=O)c2c(O)c(=O)c(C(=O)NCc3ccccc3F)cn2C[C@@H]1OC [Compound 87]	8	269	–	–
CO[C@]12CCCCC[C@@]1(C)C(=O)c1c(O)c(=O)c(C(=O)NCc3ccc(F)cc3F)cn1C2 [Compound 119]	–	–	2.1	2060
COCCC[C@@]1(C)C(=O)c2c(O)c(=O)c(C(=O)NCc3c(F)cc(F)cc3F)cn2C[C@@H]1OC [Compound 93]	1.2	52	–	–
C[C@]12CCCO[C@@H]1Cn1cc(C(=O)NCc3ccc(F)cc3F)c(=O)c(O)c1C2=O (single isomer, unassigned) [Compound 33]	0.5	281	–	–
CC1(C)CCn2cc(C(=O)NCc3cc4ccccn4n3)c(=O)c(O)c2C1=O [Compound 3]	–	–	6.5	–
COCCCO[C@@]12CCCC[C@]1(C)C(=O)c1c(O)c(=O)c(C(=O)NCc3ccc(F)cc3F)cn1C2 [Compound 116]	–	–	2.3	256
COCC[C@@]1(C)C(=O)c2c(O)c(=O)c(C(=O)NCc3ccccc3F)cn2C[C@@H]1OC [Compound 67]	1.7	154	–	–
COCC[C@]1(C)C(=O)c2c(O)c(=O)c(C(=O)NCc3ccccc3F)cn2C[C@@H]1OC [Compound 69]	1.2	24	–	–
C[C@@]12CCCO[C@@H]1Cn1cc(C(=O)NCc3c(F)cc(F)cc3F)c(=O)c(O)c1C2=O (single isomer, unassigned) [Compound 14]	–	–	0.7	26
C[C@@]12CCCO[C@@H]1Cn1cc(C(=O)NCc3ccc(F)cc3)c(=O)c(O)c1C2=O (single isomer, unassigned) [Compound 18]	–	–	8.7	315
COCCC[C@@]1(C)C(=O)c2c(O)c(=O)c(C(=O)NCc3ccc(F)cc3F)cn2C[C@@H]1OC [Compound 76]	–	–	0.9	35
C[C@@]12CCCCO[C@@H]1Cn1cc(C(=O)NCc3ccc(F)cc3F)c(=O)c(O)c1C2=O (single isomer, unassigned) [Compound 40]	1.5	442	–	–
C[C@@]12CCCO[C@@H]1Cn1cc(C(=O)NCc3cccc(Cl)c3F)c(=O)c(O)c1C2=O (single isomer, unassigned) [Compound 15]	–	–	0.5	73
COCCCO[C@]12CCCC[C@@]1(C)C(=O)c1c(O)c(=O)c(C(=O)NCc3ccc(F)cc3F)cn1C2 [Compound 117]	–	–	2.5	1440
C[C@]12CCCO[C@H]1Cn1cc(C(=O)NCc3ccc4c(c3)OCO4)c(=O)c(O)c1C2=O (single isomer, unassigned) [Compound 29]	–	–	17	> 8400
COCCC[C@]1(C)C(=O)c2c(O)c(=O)c(C(=O)NCc3c(F)cc(F)cc3F)cn2C[C@@H]1OC [Compound 91]	3.8	273	–	–
COCCC[C@]1(C)C(=O)c2c(O)c(=O)c(C(=O)NCc3cccc(Cl)c3F)cn2C[C@@H]1OC [Compound 78]	–	15	0.8	–
C[C@]12CCCCO[C@@H]1Cn1cc(C(=O)NCc3cccc(Cl)c3F)c(=O)c(O)c1C2=O (single isomer, unassigned) [Compound 45]	–	4750	2.3	–
COCC[C@]1(C)C(=O)c2c(O)c(=O)c(C(=O)NCc3ccc(F)cc3F)cn2C[C@@H]1OC [Compound 60]	–	–	2.9	2230
C[C@]12CCCO[C@H]1Cn1cc(C(=O)NCc3ccc(F)c(F)c3F)c(=O)c(O)c1C2=O (single isomer, unassigned) [Compound 20]	–	–	3.5	839
COCCC[C@@]1(C)C(=O)c2c(O)c(=O)c(C(=O)NCc3ccc(F)cc3F)cn2C[C@@H]1OC [Compound 77]	1.2	60	–	–
COCC[C@@]1(C)C(=O)c2c(O)c(=O)c(C(=O)NCc3c(F)cccc3F)cn2C[C@@H]1OC [Compound 71]	2.2	89	–	–
